From patent US9957274B2, “Indane inhibitors of EED and methods of their use” (AbbVie Inc., priority 2016, dated 2018)

target: EED (Homo sapiens, UniProt O75530); assay: EED TR-FRET Binding Assay (modified LanthaScreen competition assay)
Experimental: Compounds were tested in a modified LanthaScreen competition assay.
The following buffer was used to set up the binding reactions: 20 mM Tris-HCl pH 7.5, 200 mM NaCl, 0.01% Tween-20, 10 uM DTT (dithiothreitol), and 0.05% BSA (bovine serum albumin), with the DTT and BSA added fresh prior to initiating the binding assay. […] The reactions were then incubated for 1 hour at 25° C. in a humidified chamber prior to detection on the Perkin Elmer Envision plate reader using a Lanthascreen TR-FRET protocol.

Sequence of EED (O75530 whole entry): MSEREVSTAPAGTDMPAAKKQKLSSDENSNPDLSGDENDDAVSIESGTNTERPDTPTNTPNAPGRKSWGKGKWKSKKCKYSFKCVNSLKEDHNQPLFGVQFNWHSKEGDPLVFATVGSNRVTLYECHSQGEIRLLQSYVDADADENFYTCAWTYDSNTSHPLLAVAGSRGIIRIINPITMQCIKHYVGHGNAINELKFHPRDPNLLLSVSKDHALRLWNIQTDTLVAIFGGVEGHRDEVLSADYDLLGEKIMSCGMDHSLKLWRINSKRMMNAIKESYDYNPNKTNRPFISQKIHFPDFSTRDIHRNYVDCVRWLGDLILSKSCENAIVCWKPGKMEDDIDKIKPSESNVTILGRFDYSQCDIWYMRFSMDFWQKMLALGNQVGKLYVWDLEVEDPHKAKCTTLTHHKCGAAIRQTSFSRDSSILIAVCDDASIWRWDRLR

Question: Which IC50 does the source give for CN(C)[C@H]1CN([C@@H]2C[C@@H](O)c3cccc(F)c32)C[C@@H]1c1ccc(S(C)(=O)=O)cc1 (mixture of isomers) [Example 16, rac-(1R,3R)-3-{(3R,4S)-3-(dimethylamino)-4-[4-(methanesulfonyl)phenyl]pyrrolidin-1-yl}-4-fluoro-2,3-dihydro-1H-inden-1-ol] here?
Answer: 491 nM

Question: Which IC50 does the source give for CN(C)[C@H]1CN([C@H]2C[C@H](O)c3cccc(F)c32)C[C@@H]1c1ccc(S(C)(=O)=O)cc1 (mixture of isomers) [Example 18, rac-(1S,3S)-3-{(3R,4S)-3-(dimethylamino)-4-[4-(methanesulfonyl)phenyl]pyrrolidin-1-yl}-4-fluoro-2,3-dihydro-1H-inden-1-ol] here?
Answer: 16.2 nM

Question: Which IC50 does the source give for CN(C)[C@H]1CN([C@H]2C[C@@H](O)c3cccc(F)c32)C[C@@H]1c1ccc(S(C)(=O)=O)cc1 (mixture of isomers) [Example 34, rac-(1R,3S)-3-{(3R,4S)-3-(dimethylamino)-4-[4-(methanesulfonyl)phenyl]pyrrolidin-1-yl}-4-fluoro-2,3-dihydro-1H-inden-1-ol] here?
Answer: 104 nM

Question: CN(C)[C@H]1CN([C@H]2CCc3cccc(F)c32)C[C@@H]1c1cn(C)c2cccnc12 (mixture of isomers) [Example 138, rac-(3R,4S)-1-[(1S)-7-fluoro-2,3-dihydro-1H-inden-1-yl]-N,N-dimethyl-4-(1-methyl-1H-pyrrolo[3,2-b]pyridin-3-yl)pyrrolidin-3-amine] was tested. Which IC50 did it give?
Answer: 119 nM

Question: Which IC50 does the source give for CN(C)[C@@H]1CN([C@@H]2CCc3cccc(F)c32)C[C@H]1C1COc2ccccc21 (mixture of isomers) [Example 139, rac-(3S,4R)-4-(2,3-dihydro-1-benzofuran-3-yl)-1-[(1R)-7-fluoro-2,3-dihydro-1H-inden-1-yl]-N,N-dimethylpyrrolidin-3-amine] here?
Answer: 83.5 nM

Question: Which IC50 does the source give for CN(C)[C@H]1CN([C@@H]2CCc3cccc(F)c32)C[C@@H]1C1COc2ccccc21 (mixture of isomers) [Example 142, rac-(3R,4S)-4-(2,3-dihydro-1-benzofuran-3-yl)-1-[(1R)-7-fluoro-2,3-dihydro-1H-inden-1-yl]-N,N-dimethylpyrrolidin-3-amine] here?
Answer: 26 nM

Question: Which IC50 does the source give for CN(C)[C@H]1CN([C@@H]2CCc3cccc(F)c32)C[C@@H]1c1cn(C)c2cccnc12 (mixture of isomers) [Example 143, rac-(3R,4S)-1-[(1R)-7-fluoro-2,3-dihydro-1H-inden-1-yl]-N,N-dimethyl-4-(1-methyl-1H-pyrrolo[3,2-b]pyridin-3-yl)pyrrolidin-3-amine] here?
Answer: 19.4 nM

Question: How did the IC50 turn out when COC(=O)c1ccc([C@H]2CN(C3CCc4cccc(Cl)c43)C[C@@H]2N(C)C)cc1 (mixture of isomers) [Example 21, rac-methyl 4-[(3S,4R)-1-(7-chloro-2,3-dihydro-1H-inden-1-yl)-4-(dimethylamino)pyrrolidin-3-yl]benzoate] was run?
Answer: 70.7 nM

Question: Which IC50 does the source give for Cc1cc([C@H]2CN(C3CCc4cccc(F)c43)C[C@@H]2N(C)C)ccc1Br (mixture of isomers) [Example 27, rac-(3R,4S)-4-(4-bromo-3-methylphenyl)-1-(7-fluoro-2,3-dihydro-1H-inden-1-yl)-N,N-dimethylpyrrolidin-3-amine] here?
Answer: 1.84 nM

Question: With CN(C)[C@H]1CN(C2CCc3cccc(Cl)c32)C[C@@H]1c1ccc(C(=O)O)cc1 (mixture of isomers) [Example 28, rac-4-[(3S,4R)-1-(7-chloro-2,3-dihydro-1H-inden-1-yl)-4-(dimethylamino)pyrrolidin-3-yl]benzoic acid] as the compound, how does the IC50 read?
Answer: 489 nM

Question: CN(C)[C@@H]1CN(C2CCc3cccc(F)c32)C[C@H]1c1ccc(C(=O)O)cc1 (mixture of isomers) [Example 29, rac-4-[(3R,4S)-4-(dimethylamino)-1-(7-fluoro-2,3-dihydro-1H-inden-1-yl)pyrrolidin-3-yl]benzoic acid] was tested. Which IC50 did it give?
Answer: 23.2 nM

Question: Which IC50 does the source give for Cc1cc([C@H]2CN(C3CCc4cccc(F)c43)C[C@@H]2N(C)C)ccc1C(=O)O (mixture of isomers) [Example 36, rac-4-[(3S,4R)-4-(dimethylamino)-1-(7-fluoro-2,3-dihydro-1H-inden-1-yl)pyrrolidin-3-yl]-2-methylbenzoic acid] here?
Answer: 14.3 nM

Question: For Cc1cc([C@H]2CN(C3c4ccccc4CC3O)C[C@@H]2N(C)C)ccc1C#N (mixture of isomers) [Example 38, rac-4-[(3S,4R)-4-(dimethylamino)-1-(2-hydroxy-2,3-dihydro-1H-inden-1-yl)pyrrolidin-3-yl]-2-methylbenzonitrile], which IC50 is on record?
Answer: 68.7 nM

Question: With COC(=O)c1ccc([C@H]2CN(C3CCc4cccc(F)c43)C[C@@H]2N(C)C)cc1C (mixture of isomers) [Example 39, rac-methyl 4-[(3S,4R)-4-(dimethylamino)-1-(7-fluoro-2,3-dihydro-1H-inden-1-yl)pyrrolidin-3-yl]-2-methylbenzoate] as the compound, how does the IC50 read?
Answer: 1.07 nM

Question: How did the IC50 turn out when CN1CCN(C(=O)c2ccc([C@H]3CN(C4CCc5cccc(F)c54)C[C@@H]3N(C)C)cc2)CC1=O (mixture of isomers) [Example 51, rac-4-{4-[(3S,4R)-4-(dimethylamino)-1-(7-fluoro-2,3-dihydro-1H-inden-1-yl)pyrrolidin-3-yl]benzoyl}-1-methylpiperazin-2-one] was run?
Answer: 12.4 nM

Question: For CN(C)[C@H]1CN(C2CCc3cccc(F)c32)C[C@@H]1c1ccc(C(=O)N2CCN(S(C)(=O)=O)CC2)cc1 (mixture of isomers) [Example 53, rac-{4-[(3S,4R)-4-(dimethylamino)-1-(7-fluoro-2,3-dihydro-1H-inden-1-yl)pyrrolidin-3-yl]phenyl}[4-(methanesulfonyl)piperazin-1-yl]methanone], which IC50 is on record?
Answer: 12.3 nM

Question: How did the IC50 turn out when CC(=O)N1CCN(C(=O)c2ccc([C@H]3CN(C4CCc5cccc(F)c54)C[C@@H]3N(C)C)cc2)CC1 (mixture of isomers) [Example 55, rac-1-(4-{4-[(3S,4R)-4-(dimethylamino)-1-(7-fluoro-2,3-dihydro-1H-inden-1-yl)pyrrolidin-3-yl]benzoyl}piperazin-1-yl)ethan-1-one] was run?
Answer: 13.2 nM

Question: How did the IC50 turn out when CCS(=O)(=O)N1CCN(C(=O)c2ccc([C@H]3CN(C4CCc5cccc(F)c54)C[C@@H]3N(C)C)cc2)CC1 (mixture of isomers) [Example 57, rac-{4-[(3S,4R)-4-(dimethylamino)-1-(7-fluoro-2,3-dihydro-1H-inden-1-yl)pyrrolidin-3-yl]phenyl}[4-(ethanesulfonyl)piperazin-1-yl]methanone] was run?
Answer: 12.3 nM

Question: Cc1coc(-c2ccc([C@@H]3CN(C4CCc5cccc(F)c54)C[C@H]3N(C)C)cc2)n1 (mixture of isomers) [Example 69, rac-(3S,4R)-1-(7-fluoro-2,3-dihydro-1H-inden-1-yl)-N,N-dimethyl-4-[4-(4-methyl-1,3-oxazol-2-yl)phenyl]pyrrolidin-3-amine] was tested. Which IC50 did it give?
Answer: 3.89 nM

Question: COC(=O)c1ccc2c([C@@H]3CN(C4CCc5cccc(F)c54)C[C@H]3N(C)C)cn(C)c2c1 (mixture of isomers) [Example 83, rac-methyl 3-[(3R,4S)-4-(dimethylamino)-1-(7-fluoro-2,3-dihydro-1H-inden-1-yl)pyrrolidin-3-yl]-1-methyl-1H-indole-6-carboxylate] was tested. Which IC50 did it give?
Answer: 10.9 nM

Question: For COC(=O)c1cccc2c([C@H]3CN(C4CCc5cccc(F)c54)C[C@@H]3N(C)C)cn(C)c12 (mixture of isomers) [Example 85, rac-methyl 3-[(3S,4R)-4-(dimethylamino)-1-(7-fluoro-2,3-dihydro-1H-inden-1-yl)pyrrolidin-3-yl]-1-methyl-1H-indole-7-carboxylate], which IC50 is on record?
Answer: 0.561 nM

Question: Which IC50 does the source give for CN(C)[C@H]1CN(C2CCc3c(F)cccc32)C[C@@H]1c1cn(C)c2ccccc12 (mixture of isomers) [Example 90, rac-(3R,4S)-1-(4-fluoro-2,3-dihydro-1H-inden-1-yl)-N,N-dimethyl-4-(1-methyl-1H-indol-3-yl)pyrrolidin-3-amine] here?
Answer: 20.8 nM

Question: For CN(C)[C@H]1CN(C2CCc3cc(F)ccc32)C[C@@H]1c1cn(C)c2ccccc12 (mixture of isomers) [Example 91, rac-(3R,4S)-1-(5-fluoro-2,3-dihydro-1H-inden-1-yl)-N,N-dimethyl-4-(1-methyl-1H-indol-3-yl)pyrrolidin-3-amine], which IC50 is on record?
Answer: 30.7 nM

Question: How did the IC50 turn out when CN(C)[C@H]1CN(C2CCc3cccc(F)c32)C[C@@H]1c1cn(C)c2c(Br)cccc12 (mixture of isomers) [Example 93, rac-(3R,4S)-4-(7-bromo-1-methyl-1H-indol-3-yl)-1-(7-fluoro-2,3-dihydro-1H-inden-1-yl)-N,N-dimethylpyrrolidin-3-amine] was run?
Answer: 2.76 nM

Question: For CN(C)[C@H]1CN(C2CCc3cccc(F)c32)C[C@@H]1c1cn(C)c2cc(Br)ccc12 (mixture of isomers) [Example 94, rac-(3R,4S)-4-(6-bromo-1-methyl-1H-indol-3-yl)-1-(7-fluoro-2,3-dihydro-1H-inden-1-yl)-N,N-dimethylpyrrolidin-3-amine], which IC50 is on record?
Answer: 4.9 nM

Question: How did the IC50 turn out when CN(C)[C@H]1CN(C2CCc3cccc(F)c32)C[C@@H]1c1cn(C)c2cc(N3CCN(S(C)(=O)=O)CC3)ccc12 (mixture of isomers) [Example 120, rac-(3R,4S)-1-(7-fluoro-2,3-dihydro-1H-inden-1-yl)-4-{6-[4-(methanesulfonyl)piperazin-1-yl]-1-methyl-1H-indol-3-yl}-N,N-dimethylpyrrolidin-3-amine] was run?
Answer: 3.46 nM

Question: CC(=O)N1CCN(c2ccc3c([C@H]4CN(C5CCc6cccc(F)c65)C[C@@H]4N(C)C)cn(C)c3c2)CC1 (mixture of isomers) [Example 121, rac-1-(4-{3-[(3S,4R)-4-(dimethylamino)-1-(7-fluoro-2,3-dihydro-1H-inden-1-yl)pyrrolidin-3-yl]-1-methyl-1H-indol-6-yl}piperazin-1-yl)ethan-1-one] was tested. Which IC50 did it give?
Answer: 3.79 nM

Question: With CN(C)[C@@H]1CN(C2CCc3cccc(F)c32)C[C@H]1c1cnc2n1CCCC2 (mixture of isomers) [Example 140, rac-(3S,4R)-1-(7-fluoro-2,3-dihydro-1H-inden-1-yl)-N,N-dimethyl-4-(5,6,7,8-tetrahydroimidazo[1,2-a]pyridin-3-yl)pyrrolidin-3-amine] as the compound, how does the IC50 read?
Answer: 61.3 nM

Question: With CN(C)[C@H]1CN(C2CCc3cccc(F)c32)C[C@@H]1c1cn(C)c2ccncc12 (mixture of isomers) [Example 141, rac-(3R,4S)-1-(7-fluoro-2,3-dihydro-1H-inden-1-yl)-N,N-dimethyl-4-(1-methyl-1H-pyrrolo[3,2-c]pyridin-3-yl)pyrrolidin-3-amine] as the compound, how does the IC50 read?
Answer: 46.8 nM
